Several values for one entry are separate records, joined by “and”; a condition that tells them apart may be missing. Equal values may be shown once. Where a name gives a salt, the structure may show the parent alone.
Assays:
PP2A = assay: Okadaic acid-induced PP2A protein expression level in PC12 cells (Western Blot); assay type: cell-based; conditions: for PP2A (Western Blot signal) / PP2A(%): 24 h
Protocol: PC12 cells were inoculated into a T25 culture flask. After the cells were attached to the wall, compound 1 and compound 2 were added, and then the cells were incubated for 2 h. 40 nmol/L okadaic acid was then added. Then, the cells were incubated for 24 h. The protein was extracted. Based on the Western Blot assay, the PP2A protein expression level in PC12 cells was detected through SDS-PAGE and transfer, immunoblotting, color development, and G: BOX chemiXR5 imaging.

[1] = test system: p-tauSer396 in SH-SY5Y cells; assay: Okadaic acid-induced phosphorylation of tau protein (p-tauSer396) in SH-SY5Y cells (Western Blot); assay type: cell-based, human; conditions: okadaic acid 40 nmol/L alone (model group), 24 h, SEM, n = 3
Protocol: SH-SY5Y cells were cultured in vitro for 24 h in culture media containing different concentrations of compound 2. Then, the cells were treated with 40 nmol/L okadaic acid for 24 h. The p-tauSer396 level of the SH-SY5Y cells was measured by the Western Blot assay.

PC12 cells = assay: Survival rate of PC12 cells in the okadaic acid-induced injury model (CCK-8); assay type: cell-based
Protocol: PC12 cells were detached and counted. A cell suspension was prepared at 8.0×10^4 cells/mL. 100 μL of the cell suspension was added to each well of a 96-well cell culture plate. The 96-well cell culture plate was placed in an incubator at 37° C. in 5% CO2 and cultured for 24 h. In an experimental group, the PC12 cells were pre-incubated for 2 h in a culture medium containing a test compound (the concentrations of the compound were 0.1 μmol/L, 0.5 μmol/L, 1 μmol/L, 5 μmol/L, and 10 μmol/L respectively, and the concentrations of the compound were set according to the concentrations in Table 5, Table 6, Table 7, and Table 8). […] In addition, a negative control group (no test compound or okadaic acid added) and a model group (only okadaic acid added) were set. The 96-well cell culture plate was placed in an incubator at 37° C. in 5% CO2 and cultured for 24 h. The cells in the 96-well cell culture plate were stained with 10 μL of CCK-8 in each well, and then cultured in the incubator for 1 h to 2 h. The 96-well cell culture plate was shaken gently for 10 min to mix uniformly and remove bubbles from the 96-well cell culture plate. The OD value of each well at 2=450 nm was read by using a microplate reader. A survival rate of cells was calculated.
Calculation formula for the cell survival rate: […]
The effect of each compound on the survival rate of PC12 cells in the okadaic acid- and Aβ1-42-induced injury models was determined by the CCK-8 cell proliferation assay.

[2] = Rattus norvegicus, PC-12, 24 h, compound 5 μmol/L, 2 h, then okadaic acid 50 nmol/L, 24 h, PC12 cells
[3] = compound 5 μmol/L, 2 h, then okadaic acid 50 nmol/L, 24 h, PC12 cells
[4] = compound 1 μmol/L, 2 h, then okadaic acid 40 nmol/L
[5] = compound 5 μmol/L, 2 h, then okadaic acid 40 nmol/L
[6] = compound 10 μmol/L, 2 h, then okadaic acid 40 nmol/L

With C=C1[C@@H](O)[C@@H]2O[C@]3(CC[C@H](/C=C/[C@@H](C)[C@@H]4CC(C)=C[C@@]5(O[C@H](C[C@@](C)(O)C(=O)O)CC[C@H]5O)O4)O3)CC[C@H]2O[C@@H]1[C@@H](O)C[C@H](C)[C@H]1O[C@@]2(CCCCO2)CC[C@H]1C [Okadaic Acid, okadaic acid, reference compound] the “PP2A (Western Blot signal)” value (PP2A; okadaic acid 40 nmol/L alone) was 339.39, the “PP2A(%)” value (PP2A; okadaic acid 40 nmol/L alone) was 8% and the “p-tauSer396 level (%)” value [1] was 0.855 ± 0.023%. For the same molecule, the “OD value at 450 nm, Mean ± SD” value (PC12 cells; okadaic acid 50 nmol/L alone (model group), 24 h, PC12 cells) was 0.643 ± 0.014 and 1.225 ± 0.018 and 0.669 ± 0.025.

In the case of CCc1ccc2c(=N)oc3cc(COC)nn3c2c1 [Compound 9, 2-(methoxymethyl)-8-ethyl-5H-benzo[d]pyrazolo[5,1-b][1,3]oxazin-5-imine], the viability at 5 µM (PC12 cells; [2]) was 65.6% and the “OD value at 450 nm, Mean ± SD” value (PC12 cells; [3]) was 0.852 ± 0.010.

CCCOCc1cc2oc(=N)c3cc(F)ccc3n2n1 [Compound 16, 2-(propoxymethyl)-7-fluoro-5H-benzo[d]pyrazolo[5,1-b][1,3]oxazin-5-imine] was tested, and the viability at 5 µM (PC12 cells; [2]) was 66.9% and the “OD value at 450 nm, Mean ± SD” value (PC12 cells; [3]) was 0.869 ± 0.005.

With N=c1oc2cc(COC=O)nn2c2ccccc12 [Compound 5, (5-imino-5H-benzo[d]pyrazolo[5,1-b][1,3]oxazin-2-yl)methyl formate] the viability at 5 µM (PC12 cells; [2]) was 65.6% and the “OD value at 450 nm, Mean ± SD” value (PC12 cells; [3]) was 0.852 ± 0.004.

CSCc1cc2oc(=N)c3ccccc3n2n1 [Compound 7, 2-((methylthio)methyl)-5H-benzo[d]pyrazolo[5,1-b][1,3]oxazin-5-imine] was tested, and the viability at 5 µM (PC12 cells; [2]) was 70.8% and the “OD value at 450 nm, Mean ± SD” value (PC12 cells; [3]) was 0.919 ± 0.008.

In the case of CCOCc1cc2oc(=N)c3cc(F)ccc3n2n1 [Compound 15, 2-(ethoxymethyl)-7-fluoro-5H-benzo[d]pyrazolo[5,1-b][1,3]oxazin-5-imine], the viability at 5 µM (PC12 cells; [2]) was 67.1% and the “OD value at 450 nm, Mean ± SD” value (PC12 cells; [3]) was 0.872 ± 0.012.

In the case of CCCOCc1cc2oc(=N)c3ccccc3n2n1 [Compound 4, 2-(propoxymethyl)-5H-benzo[d]pyrazolo[5,1-b][1,3]oxazin-5-imine], the viability at 5 µM (PC12 cells; [2]) was 65.9% and the “OD value at 450 nm, Mean ± SD” value (PC12 cells; [3]) was 0.856 ± 0.012.

In the case of COCc1cc2oc(=N)c3cc(OC)ccc3n2n1 [Compound 13, 2-(methoxymethyl)-7-methoxy-5H-benzo[d]pyrazolo[5,1-b][1,3]oxazin-5-imine], the viability at 5 µM (PC12 cells; [2]) was 67.7% and the “OD value at 450 nm, Mean ± SD” value (PC12 cells; [3]) was 0.879 ± 0.009.

In the case of COCCc1cc2oc(=N)c3ccc(F)cc3n2n1 [Compound 17, 2-(methoxyethyl)-8-fluoro-5H-benzo[d]pyrazolo[5,1-b][1,3]oxazin-5-imine], the viability at 5 µM (PC12 cells; [2]) was 67.9% and the “OD value at 450 nm, Mean ± SD” value (PC12 cells; [3]) was 0.882 ± 0.005.

COCc1cc2oc(=N)c3cc(F)ccc3n2n1 [Compound 11, 2-(methoxymethyl)-7-fluoro-5H-benzo[d]pyrazolo[5,1-b][1,3]oxazin-5-imine] was tested, and the viability at 5 µM (PC12 cells; [2]) was 66% and the “OD value at 450 nm, Mean ± SD” value (PC12 cells; [3]) was 0.857 ± 0.007.

CC(=O)OCc1cc2oc(=N)c3ccccc3n2n1 [Compound 6, (5-imino-5H-benzo[d]pyrazolo[5,1-b][1,3]oxazin-2-yl)methyl acetate] was tested, and the viability at 5 µM (PC12 cells; [2]) was 68.4% and the “OD value at 450 nm, Mean ± SD” value (PC12 cells; [3]) was 0.889 ± 0.007.

With CCOc1ccc2c(c1)c(=N)oc1cc(COC)nn12 [Compound 14, 2-(methoxymethyl)-7-ethoxy-5H-benzo[d]pyrazolo[5,1-b][1,3]oxazin-5-imine] the viability at 5 µM (PC12 cells; [2]) was 66.7% and the “OD value at 450 nm, Mean ± SD” value (PC12 cells; [3]) was 0.866 ± 0.011.

For COCc1cc2oc(=N)c3ccc(C)cc3n2n1 [Compound 8, 2-(methoxymethyl)-8-methyl-5H-benzo[d]pyrazolo[5,1-b][1,3]oxazin-5-imine], the viability at 5 µM (PC12 cells; [2]) was 67.5% and the “OD value at 450 nm, Mean ± SD” value (PC12 cells; [3]) was 0.877 ± 0.009.

In the case of CCOCc1cc2oc(=N)c3ccccc3n2n1 [Compound 3, 2-(ethoxymethyl)-5H-benzo[d]pyrazolo[5,1-b][1,3]oxazin-5-imine], the viability at 5 µM (PC12 cells; [2]) was 66% and the “OD value at 450 nm, Mean ± SD” value (PC12 cells; [3]) was 0.858 ± 0.009.

With COCc1cc2oc(=N)c3ccc(F)cc3n2n1 [Compound 10, 2-(methoxymethyl)-8-fluoro-5H-benzo[d]pyrazolo[5,1-b][1,3]oxazin-5-imine] the viability at 5 µM (PC12 cells; [2]) was 64.8% and the “OD value at 450 nm, Mean ± SD” value (PC12 cells; [3]) was 0.842 ± 0.008.

In the case of N=c1oc2cc(CO)nn2c2ccccc12 [Compound 1, (5-imino-5H-benzo[d]pyrazolo[5,1-b][1,3]oxazin-2-yl) methanol], the “PP2A (Western Blot signal)” value (PP2A; [4]) was 437.09, the “PP2A(%)” value (PP2A; [4]) was 14% and the “PP2A (Western Blot signal)” value (PP2A; [5]) was 625.9. The “PP2A(%)” value (PP2A; [5]) was 17%, the “PP2A (Western Blot signal)” value (PP2A; [6]) was 953.23 and the “PP2A(%)” value (PP2A; [6]) was 22%. For the same molecule, the “effect on the PP2A expression level” value (PP2A; compound 1, 5 and 10 μmol/L, compared with okadaic acid only) was “can significantly increase the PP2A expression level dose-dependently”, the viability at 0.1 µM (PC12 cells; Rattus norvegicus, PC-12, 24 h, compound 0.1 μmol/L, 2 h, then okadaic acid 50 nmol/L, 24 h, PC12 cells) was 58.2% and the viability at 0.5 µM (PC12 cells; Rattus norvegicus, PC-12, 24 h, compound 0.5 μmol/L, 2 h, then okadaic acid 50 nmol/L, 24 h, PC12 cells) was 60.2%. The viability at 1 µM (PC12 cells; Rattus norvegicus, PC-12, 24 h, compound 1 μmol/L, 2 h, then okadaic acid 50 nmol/L, 24 h, PC12 cells) was 63.1%, the viability at 5 µM (PC12 cells; [2]) was 70.5% and the viability at 10 µM (PC12 cells; Rattus norvegicus, PC-12, 24 h, compound 10 μmol/L, 2 h, then okadaic acid 50 nmol/L, 24 h, PC12 cells) was 76.6%. The “survival rate compared with okadaic acid model group” value (PC12 cells; compound 0.1 μmol/L) was “statistical difference (P<0.05)”, the “OD value at 450 nm, Mean ± SD” value (PC12 cells; compound 0.1 μmol/L, 2 h, then okadaic acid 50 nmol/L, 24 h, PC12 cells) was 1.337 ± 0.008 and the “OD value at 450 nm, Mean ± SD” value (PC12 cells; compound 0.5 μmol/L, 2 h, then okadaic acid 50 nmol/L, 24 h, PC12 cells) was 1.382 ± 0.013. The “OD value at 450 nm, Mean ± SD” value (PC12 cells; compound 1 μmol/L, 2 h, then okadaic acid 50 nmol/L, 24 h, PC12 cells) was 1.449 ± 0.013, the Survival rate % (PC12 cells; compound 5 μmol/L, 2 h, then okadaic acid 50 nmol/L, 24 h, PC12 cells, 1440 min, 5 µM) was 71.70% and the “OD value at 450 nm, Mean ± SD” value (PC12 cells; compound 10 μmol/L, 2 h, then okadaic acid 50 nmol/L, 24 h, PC12 cells) was 1.76 ± 0.032. The “survival rate compared with okadaic acid model group” value (PC12 cells; compound 0.5, 1, 5 and 10 μmol/L) was “significant statistical differences (P<0.01)”.

For COCc1cc2oc(=N)c3cc(Cl)ccc3n2n1 [Compound 12, 2-(methoxymethyl)-7-chloro-5H-benzo[d]pyrazolo[5,1-b][1,3]oxazin-5-imine], the viability at 5 µM (PC12 cells; [2]) was 66.7% and the “OD value at 450 nm, Mean ± SD” value (PC12 cells; [3]) was 0.866 ± 0.003.

COCCCc1cc2oc(=N)c3ccc(F)cc3n2n1 [Compound 18, 2-(methoxypropyl)-8-fluoro-5H-benzo[d]pyrazolo[5,1-b][1,3]oxazin-5-imine] was tested, and the viability at 5 µM (PC12 cells; [2]) was 65.5% and the “OD value at 450 nm, Mean ± SD” value (PC12 cells; [3]) was 0.851 ± 0.007.

From patent US20260335329A1, “PROTEIN PHOSPHATASE AGONIST AND USE” (priority 2022, published 2026)
